For this experiment, the target named is SHP2 (Homo sapiens (Human), UniProt Q06124). In words: SHP2 allosteric inhibition assay (DiFMUP prompt fluorescence). Format: biochemical. The note with it: 0.2 nM SHP2 incubated with 0.5 μM Activating Peptide 1 or 2, surrogate substrate DiFMUP, compound 0.00005-10 μM. An excerpt: Without wishing to be bound by theory, SHP is allosterically activated through binding of bis-tyrosyl-phosphorylated peptides to its Src Homology 2 (SH2) domains. The latter activation step leads to the release of the auto-inhibitory interface of SHP2, which in turn renders the SHP2 protein tyrosine phosphatase (PTP) active and available for substrate recognition and reaction catalysis. The catalytic activity of SHP2 was monitored using the surrogate substrate DiFMUP in a prompt fluorescence assay format.
After 30-60-minutes incubation at 25° C., the surrogate substrate DiFMUP (Invitrogen, Cat #D6567) was added to the reaction and activity was determined by a kinetic read using a microplate reader (Envision, Perkin-Elmer or Spectramax M5, Molecular Devices). The excitation and emission wavelengths were 340 nm and 450 nm, respectively. Initial rates were determined from a linear fit of the data, and the inhibitor dose response curves were analyzed using normalized IC50 regression curve fitting with control based normalization.

Sequence of SHP2 (Q06124 whole entry): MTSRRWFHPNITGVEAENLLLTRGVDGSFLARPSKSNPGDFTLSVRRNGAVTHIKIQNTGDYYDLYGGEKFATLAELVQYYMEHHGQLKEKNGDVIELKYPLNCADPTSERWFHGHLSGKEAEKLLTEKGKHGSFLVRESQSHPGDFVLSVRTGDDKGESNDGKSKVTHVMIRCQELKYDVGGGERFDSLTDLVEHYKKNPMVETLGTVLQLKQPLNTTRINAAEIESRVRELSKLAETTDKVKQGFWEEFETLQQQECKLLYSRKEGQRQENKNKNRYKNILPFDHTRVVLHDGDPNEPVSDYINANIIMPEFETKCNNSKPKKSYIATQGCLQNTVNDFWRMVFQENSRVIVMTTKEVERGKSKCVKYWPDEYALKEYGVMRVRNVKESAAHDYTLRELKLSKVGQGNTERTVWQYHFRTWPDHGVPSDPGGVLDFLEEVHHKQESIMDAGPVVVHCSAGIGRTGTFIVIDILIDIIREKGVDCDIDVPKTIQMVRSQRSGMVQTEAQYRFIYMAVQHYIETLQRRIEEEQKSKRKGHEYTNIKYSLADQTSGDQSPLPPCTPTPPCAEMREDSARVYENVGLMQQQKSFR

In turn, `Cc1nc(N2CCC3(CCC[C@H]3N)CC2)cnc1-c1cccc(Cl)c1Cl` [Example 23, (R)-8-(5-(2,3-dichlorophenyl)-6-methylpyrazin-2-yl)-8-azaspiro[4.5]decan-1-amine] showed an IC50 of 43 nM. Next, `Cc1nc(N2CCC3(CCC[C@H]3N)CC2)cnc1Sc1cccc(Cl)c1Cl` [Example 1, (R)-8-(5-((2,3-dichlorophenyl)thio)-6-methylpyrazin-2-yl)-8-azaspiro[4.5]decan-1-amine]: 83 nM; `Cc1nc(N2CCC(C)(N)CC2)cnc1-c1cccc(Cl)c1Cl` [Example 24, 1-(5-(2,3-dichlorophenyl)-6-methylpyrazin-2-yl)-4-methylpiperidin-4-amine]: 104 nM.

A word on the IC50: it is the midpoint of a concentration-inhibition curve.
